Measurements: EP2951180B1, “2,6,7,8 SUBSTITUTED PURINES AS HDM2 INHIBITORS” (Merck Sharp & Dohme Corp., priority 2013, dated 2014)

Biological target: T1, HDM2 (Homo sapiens, UniProt Q00987)
T1 construct: Thioredoxin (N); made in house; host or cells: E. coli strain BL21(DE3)Rosetta
Assay: HDM2 FRET assay (inhibition of binding of FITC labeled p53-pocket peptide to HDM2)
Settings: 0.5 nM HDM2 (residues 17 to 125), 3nM peptide, two hour incubation at room temperature; read-out: FRET IC50
How it was run: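 Displacement of FITC-p53 peptide (3 nM) from His-tagged HDM2 (0.5 nM) is measured by Tb-to-fluorescein FRET in PBS, 0.01% BSA, 0.01% Tween-20. IC50 values derive from 10-point curves.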

T1 sequence (Q00987 17-125): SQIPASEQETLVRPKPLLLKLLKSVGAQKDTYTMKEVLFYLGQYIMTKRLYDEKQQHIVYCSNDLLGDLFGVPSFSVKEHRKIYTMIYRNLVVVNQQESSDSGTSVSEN

Compound: CC(C)c1ccnc(-c2nc3nc(-c4noc(=O)[nH]4)nc(N[C@H](C)C4CCC4)c3n2C[C@H]2CC[C@H](C)CC2)c1F [Example 15.7, 3-(6-((R)-1-cyclobutylethylamino)-8-(3-fluoro-4-isopropylpyridin-2-yl)-7-((trans-4-methylcyclohexyl)methyl)-7H-purin-2-yl)-1,2,4-oxadiazol-5(4H)-one]
- IC50: 5.13 nM

Compound: CC(C)c1cc(-c2nc3nc(C(=O)O)nc(N[C@H](C)C4CCC4)c3n2C[C@H]2CC[C@H](C)CC2)ncc1F [Example 15.8, 6-(((R)-1-cyclobutylethyl)amino)-8-(5-fluoro-4-isopropylpyridin-2-yl)-7-((trans-4-methylcyclohexyl)methyl)-7H-purine-2-carboxylic acid]
- IC50: 1.14 nM

Compound: C[C@@H](Nc1nc(-c2noc(=O)[nH]2)nc2nc(-c3cc(C(C)(C)O)c(F)cn3)n(C[C@H]3CC[C@H](C)CC3)c12)C1CCC1 [Example 15.9, 3-(6-(((R)-1-cyclobutylethyl)amino)-8-(5-fluoro-4-(2-hydroxypropan-2-yl)pyridin-2-yl)-7-((trans-4-methylcyclohexyl)methyl)-7H-purin-2-yl)-1,2,4-oxadiazol-5(4H)-one]
- IC50: 3.95 nM

Compound: CC(C)c1cc(-c2nc3nc(-c4noc(=O)[nH]4)nc(N[C@H](C)C4CCC4)c3n2C[C@H]2CC[C@H](C)CC2)ncc1F [Example 15.10, 3-(6-(((R)-1-cyclobutylethyl)amino)-8-(5-fluoro-4-isopropylpyridin-2-yl)-7-((trans-4-methylcyclohexyl)methyl)-7H-purin-2-yl)-1,2,4-oxadiazol-5(4H)-one]
- IC50: 11.8 nM

Compound: C[C@@H](Nc1nc(C(=O)O)nc2nc(-c3nccs3)n(C[C@H]3CC[C@H](C)CC3)c12)C1CCC1 [Example 15.11, 6-(((R)-1-cyclobutylethyl)amino)-7-((trans-4-methylcyclohexyl)methyl)-8-(thiazol-2-yl)-7H-purine-2-carboxylic acid]
- IC50: 2.45 nM

Compound: C[C@@H](Nc1nc(-c2noc(=O)[nH]2)nc2nc(-c3nccs3)n(C[C@H]3CC[C@H](C)CC3)c12)C1CCC1 [Example 15.12, 3-(6-(((R)-1-cyclobutylethyl)amino)-7-((trans-4-methylcyclohexyl)methyl)-8-(thiazol-2-yl)-7H-purin-2-yl)-1,2,4-oxadiazol-5(4H)-one]
- IC50: 6.28 nM

Compound: COc1ccc(C)cc1-c1nc2nc(C(=O)O)nc(N[C@H](C)C3CCC3)c2n1C[C@H]1CC[C@H](C)CC1 [Example 15.13, 6-{[(1R)-1-cyclobutylethyl]amino}-8-(2-methoxy-5-methylphenyl)-7-[(trans-4-methylcyclohexyl)methyl]-7H-purine-2-carboxylic acid]
- IC50: 4.96 nM

Compound: Cc1cccc(-c2nc3nc(C(=O)O)nc(N[C@H](C)C4CCC4)c3n2C[C@H]2CC[C@H](C)CC2)c1 [Example 15.14, 6-{[(1R)-1-cyclobutylethyl]amino}-7-[(trans-4-methylcyclohexyl)methyl]-8-(3-methylphenyl)-7H-purine-2-carboxylic acid]
- IC50: 2.91 nM

Compound: CC(C)c1ccnc(-c2nc3nc(C(=O)O)nc(N[C@H](C)C4CCC4)c3n2C[C@H]2CC[C@H](C)CC2)c1 [Example 15.15, 6-{[(1R)-1-cyclobutylethyl]amino}-7-[(trans-4-methylcyclohexyl)methyl]-8-[4-(1-methylethyl)pyridin-2-yl]-7H-purine-2-carboxylic acid]
- IC50: 2.55 nM

Compound: C[C@@H](Nc1nc(C(=O)O)nc2nc(-c3cc(C(C)(C)C)ccn3)n(C[C@H]3CC[C@H](C)CC3)c12)C1CCC1 [Example 15.16, 8-(4-tert-butylpyridin-2-yl)-6-{[(1R)-1-cyclobutylethyl]amino}-7-[(trans-4-methylcyclohexyl)methyl]-7H-purine-2-carboxylic acid]
- IC50: 1.04 nM

Compound: C[C@@H](Nc1nc(C(=O)O)nc2nc(-c3cc(C4CC4)ccn3)n(C[C@H]3CC[C@H](C)CC3)c12)C1CCC1 [Example 15.17, 6-{[(1R)-1-cyclobutylethyl]amino}-8-(4-cyclopropylpyridin-2-yl)-7-[(trans-4-methylcyclohexyl)methyl]-7H-purine-2-carboxylic acid]
- IC50: 2.09 nM

Compound: C[C@@H](Nc1nc(C(=O)O)nc2nc(-c3cc(C4CCC4)ccn3)n(C[C@H]3CC[C@H](C)CC3)c12)C1CCC1 [Example 15.18, 6-{[(1R)-1-cyclobutylethyl]amino}-8-(4-cyclobutylpyridin-2-yl)-7-[(trans-4-methylcyclohexyl)methyl]-7H-purine-2-carboxylic acid]
- IC50: 1.8 nM

Compound: C[C@H](C1CCC1)N(C)c1nc(C(=O)O)nc2nc(-c3cc(C(C)(C)C)ccn3)n(C[C@H]3CC[C@H](C)CC3)c12 [Example 15.20, 8-(4-tert-butylpyridin-2-yl)-6-{[(1R)-1-cyclobutylethyl] (methyl)amino} -7-[(trans-4-methylcyclohexyl)methyl]-7H-purine-2-carboxylic acid]
- IC50: 17.9 nM

Compound: Cc1cnc(-c2nc3nc(C(=O)O)nc(N[C@H](C)C4CCC4)c3n2C[C@H]2CC[C@H](C)CC2)cc1C [Example 15.21, 6-{[(1R)-1-cyclobutylethyl]amino}-8-(4,5-dimethylpyridin-2-yl)-7-[(trans-4-methylcyclohexyl)methyl]-7H-purine-2-carboxylic acid]
- IC50: 8.44 nM

Compound: CC(C)c1ccnc(-c2nc3nc(C(=O)O)nc(N[C@H](C)C(F)(F)F)c3n2C[C@H]2CC[C@H](C)CC2)c1 [Example 15.22, 7-[(trans-4-methylcyclohexyl)methyl]-8-[4-(1-methylethyl)pyridin-2-yl]-6-{[(1R)-2,2,2-trifluoro-1-methylethyl]amino}-7H-purine-2-carboxylic acid]
- IC50: 17.9 nM

Compound: C[C@@H](Nc1nc(-c2noc(=O)[nH]2)nc2nc(-c3cc(C(C)(C)O)ccn3)n(C[C@H]3CC[C@H](C)CC3)c12)C1CCC1 [Example 15.23, 3-(6-{[(1R)-1-cyclobutylethyl]amino}-8-[4-(1-hydroxy-1-methylethyl)pyridin-2-yl]-7-[(trans-4-methylcyclohexyl)methyl]-7H-purin-2-yl)-1 ,2,4-oxadiazol-5(4H)-one]
- IC50: 4.75 nM

Compound: CCN(c1nc(-c2noc(=O)[nH]2)nc2nc(-c3cc(C(C)C)ccn3)n(C[C@H]3CC[C@H](C)CC3)c12)[C@H](C)C1CCC1 [Example 15.24, 3-(6-{[(1R)-1-cyclobutylethyl](ethyl)amino}-7-[(trans-4-methylcyclohexyl)methyl]-8-[4-(1-methylethyl)pyridin-2-yl]-7H-purin-2-yl)-1,2,4-oxadiazol-5(4H)-one]
- IC50: 716 nM

Compound: CC(C)c1cc(-c2nc3nc(-c4noc(=O)[nH]4)nc(N[C@H](C)C4CCC4)c3n2C[C@H]2CC[C@H](C)CC2)[nH]c(=O)c1 [Example 15.25, 6-[6-{[(1R)-1-cyclobutylethyl]amino}-7-[(trans-4-methylcyclohexyl)methyl]-2-(5-oxo-2,5-dihydro-1,2,4-oxadiazol-3-yl)-7H-purin-8-yl]-4-(1-methylethyl)pyridin-2(1H)-one]
- IC50: 6.74 nM

Compound: C[C@H]1CC[C@H](Cn2c(N3CCOCC3)nc3nc(-c4noc(=O)[nH]4)nc(-c4cccc(Cl)c4)c32)CC1 [Example 16.1, 3-(6-(3-chlorophenyl)-7-(((trans)-4-methylcyclohexyl)methyl)-8-morpholino-7H-purin-2-yl)-1,2,4-oxadiazol-5(4H)-one]
- IC50: 71.7 nM
